These results are taken from patent US20130302305A1, “Methods for Treating Gout in Patients Subpopulations” (Metabolex, Inc., priority 2011, published 2013).

Series [1] has as its system type 2 diabetic patients. Briefly: Pooled analysis of four phase 2 studies: change in serum uric acid (sUA) from baseline. Format: in vivo, human. The following applies: for reduction in serum uric acid from baseline: all analysed patients, 12-24 weeks (pooled). As for the experimental part: (§1) FIGS. 1-4 were generated based on the pooled analysis of four phase 2 studies conducted with (−)-halofenate in type 2 diabetic patients. In these studies a total of 955 patients were enrolled. In the M102-20303 study, two dose levels of (−)-halofenate (200 mg and 400 mg) or placebo were given orally daily to a total of 217 patients for 12 weeks. In the M102-20405 study, (−)-halofenate at a dose of 600 mg or placebo was given daily to a total of 100 patients for 12 weeks. In the M102-20509 study, three dose levels of (−)-halofenate (200 mg, 400 mg and 600 mg), Actos® 30 mg or placebo were given orally daily to a total of 396 patients for 16 weeks. In M102-20814 study, two dose levels of (−)-halofenate (400 mg and 600 mg), Actos® 30-45 mg or placebo were given orally daily to a total of 242 patients for 24 weeks. In these studies, change in serum uric acid (sUA) from baseline was one of the important endpoints. In order to maintain the blinded status, the sUA results following administration of double-blind study medication were not available to any parties until the studies were unblinded. Patients who added or changed the existing doses of medications that are known to influence serum uric acid levels were excluded from the serum uric acid analysis. Patients received either (−)-halofenate or matching placebo during the study were included in this exploratory analysis. Patients who received (−)-halofenate during the study but had no measurable (−)-halofenate in the blood were defined as non-compliant and were excluded from the analysis. This analysis indicated statistically significant dose dependent reduction in serum uric acid from baseline: 2% in the placebo group (n=252), −11% in the 200 mg group (n=125), −20% in the 400 mg group (n=174), and −27% in the 600 mg group (n=159); p<0.0001 for all dose groups. In order to evaluate the sUA response in CKD patients, in addition to the analysis described above, the patients were subdivided based on their baseline kidney function status. The kidney function status of each patient was evaluated by estimating the creatinine clearance (glomerular filtration rate) using the Cockcroft-Gault equation [Cockcroft-Gault GFR=(140−age)×(Body weight in kg)×(0.85 if female)/(72×serum creatinine)]. For estimating the baseline creatinine clearance, baseline body weight (kg) and baseline serum creatinine values were used and similarly, for estimating the end-of-the study creatinine clearance, end-of-study body weight and end-of-study serum creatinine values were used. […] In this analysis there were no patients with CKD4 (severe CKD) or CKD5 (kidney failure).

For series [2], the system named is type 2 diabetic patients. The experiment in a line: Pooled analysis of four phase 2 studies: estimated creatinine clearance (Cockcroft-Gault), kidney function status. Format: in vivo, human. The conditions noted are these: for Mean Baseline estimated Cr Cl (mL/min) (second column of that head, c3): all analysed patients. The protocol: as §1
The changes in estimated creatinine clearance values in the 200 mg, 400 mg, and 600 mg groups compared to placebo group were not statistically significant.

Series [3] deals with type 2 diabetes patients inadequately controlled on existing insulin therapy. The experiment in a line: Phase 2 study M102-20303: HbA1c. In kind it is in vivo, human. The following applies: for reduction from baseline in HbA1c: all patients, endpoint at week 16. As for the experimental part: (§2) FIGS. 5-7 were generated based on a randomized, double-blind, placebo-controlled phase 2 study, M102-20303. In this study, two dose levels of (−)-halofenate (200 mg and 400 mg) or placebo were given orally daily for 12 weeks to a total of 217 type 2 diabetes patients who were inadequately controlled on existing insulin therapy. In addition to their stable dose of insulin, these patients received the study drug for 12 weeks, and followed up for an additional four weeks. In this study, change in HbA1c from baseline at week 16 was the primary endpoint and changes in fasting plasma glucose and triglyceride from baseline at Week 12 were secondary endpoints. In order to maintain the blinded status, the HbA1c results following administration of double-blind study medication were not available to any parties until the studies were unblinded. In this study, patients were not allowed to add any other glucose lowering agent(s) or to change their existing doses of insulin. Patients who added lipid lowering agent(s) or changed their existing doses of lipid lowering agent(s) were excluded from the triglyceride analysis. Patients who received (−)-halofenate during the study but had no measurable (−)-halofenate in the blood were defined as non-compliant and were excluded from the analysis.

For series [4] the test system is unchanged. Briefly: Phase 2 study M102-20303: fasting plasma glucose (FPG). In kind it is in vivo, human. The conditions noted are these: for mean observed change in FPG from baseline at Week 12: all patients. As for the experimental part:
as §2

For series [5] the test system is unchanged. Briefly: Phase 2 study M102-20303: triglycerides. Format: in vivo, human. The conditions noted are these: CKD2 and CKD3 (mild to moderate CKD) patients, 400 mg daily for 12 weeks. The protocol: as §2
The test system of series [6] is gout patients. The conditions noted are these: monotherapy at 40, 80, 120, 160 and 240 mg/day; cited from earlier work.
The mark [7] stands for this setting: CKD2 and CKD3 (mild to moderate CKD) patients, 400 mg daily for 12 weeks.

“And” between values parts separate entries of the source, which are not always exact repeats. Identical values can stand only once.

For `CC(=O)NCCOC(=O)[C@H](Oc1cccc(C(F)(F)F)c1)c1ccc(Cl)cc1` [(−)-halofenate, (−)-(R)-(4-chloro-phenyl)-(3-trifluoromethyl-phenoxy)-acetic acid 2-acetylamino-ethyl ester], the “Mean Change in sUA (%)” value in series [1] (200 mg daily, CKD2 and CKD3 patients) is −14% and −14.30%; in series [1] (400 mg daily, CKD2 and CKD3 patients), −21% and −21.30%; in series [1] (600 mg daily, CKD2 (mild CKD) patients), −28% and −28.2%; in series [1] (600 mg daily, CKD2 and CKD3 patients), −29%; in series [1] (600 mg daily, CKD3 (moderate CKD) patients), −36% and −35.6%; in series [1] (600 mg daily, Normal and CKD1 patients), −25% and −25.3%. Further, the “urate-lowering effect when co-administered with aspirin” value in series [1] (200, 400 and 600 mg daily with low to medium doses of aspirin (<= about 325 mg/day) vs no aspirin) was “does not result in clinically significant loss of the urate-lowering effect”. Further, in series [1] (200, 400 and 600 mg daily with thiazide or other diuretics vs no diuretics), the “urate-lowering effect when co-administered with diuretics” value is recorded as “does not result in clinically significant loss of the urate-lowering effect”. Besides, the “reduction in serum uric acid from baseline” value is given as −11% in series [1] (200 mg orally daily), −20% in series [1] (400 mg orally daily) and −27% in series [1] (600 mg orally daily). Further, the “change in serum uric acid (sUA) from baseline” value (“change in serum uric acid (sUA)” for short) in series [1] (aspirin treated patients (<= about 325 mg/day), 200 mg daily) is recorded as −13%; in series [1] (aspirin treated patients (<= about 325 mg/day), 400 mg daily), −20%; in series [1] (aspirin treated patients (<= about 325 mg/day), 600 mg daily), −27%; in series [1] (patients not taking any diuretics, 200 mg daily) it was −11%; in series [1] (patients not taking any diuretics, 400 mg daily), −21%; in series [1] (patients not taking any diuretics, 600 mg daily) it was −27%. For the same compound, the “change in serum uric acid (sUA)” value in series [1] (patients not taking aspirin, 200 mg daily) was −10%; in series [1] (patients not taking aspirin, 400 mg daily), −20%; in series [1] (patients not taking aspirin, 600 mg daily), −26%; in series [1] (patients taking any diuretics, 200 mg daily), −12%; in series [1] (patients taking any diuretics, 400 mg daily), −15%; in series [1] (patients taking any diuretics, 600 mg daily) it was −24%. Moreover, the “change in serum uric acid (sUA)” value in series [1] (thiazide diuretic treated patients, 200 mg daily) is −16%; in series [1] (thiazide diuretic treated patients, 400 mg daily), −17%; in series [1] (thiazide diuretic treated patients, 600 mg daily) it was −24%. For the same compound, the “Mean Baseline estimated Cr Cl (mL/min) (second column of that head, c3)” value is recorded as 102.4 mL/min in series [2] (200 mg daily), 103.5 mL/min in series [2] (400 mg daily) and 100.6 mL/min in series [2] (600 mg daily). Also, the “change in CrCL as compared to placebo” value in series [2] (200 mg, 400 mg and 600 mg per day (FIG. 4)) is “no clinically significant change in CrCL”. Also, in series [3] (setting [7]), the “Change in HbA1c (%)” value is on record as −1.1%. Moreover, the “End-of-study HbA1c (%)” value in series [3] (setting [7]) amounted to 8.1%. For the same compound, the results for the “reduction from baseline in HbA1c” value in series [3] (200 mg daily for 12 weeks on stable insulin) and in series [3] (400 mg daily for 12 weeks on stable insulin) were −0.9% and −1.0%, respectively. The “Change in FPG (%)” value in series [4] (setting [7]) was −18.0% and −17.6%. In addition, the “End-of-study FPG” value in series [4] (setting [7]) was determined as 136.5 mg/dL. Besides, the “mean observed change in FPG from baseline at Week 12” value is -10.9 mg/dL in series [4] (200 mg daily) and -29.2 mg/dL in series [4] (400 mg daily). The “Change in triglyceride” value in series [5] is -33.6 mg/dL. In addition, the “End-of-study triglyceride” value in series [5] amounted to 168.6 mg/dL.

Turning to `O=c1[nH]cnc2c(CN3C[C@H](CO)[C@@H](O)C3)c[nH]c12` [Ulodesine, 7-(((3R,4R)-3-hydroxy-4-(hydroxymethyl)pyrrolidin-1-yl)methyl)-3H-pyrrolo[3,2-d]pyrimidin-4(5H)-one], in series [6], the “effect on serum uric acid” value was “rapidly and significantly reduced serum uric acid”.
